# Data published in patent publication US10174038B2, “Compounds and methods for antiviral treatment” (Gilead Sciences, Inc., priority 2012, dated 2019).
# Tested on: RSV strain A2
# Experiment: RSV antiviral activity, in vitro cytoprotection assay in Hep2 cells
# Type: cell-based, Respiratory Syncytial Virus (RSV)
# Settings: 0.5 μM compound; RSV-induced cytopathic effect in Hep2 cells; % inhibition calculated from fitted 4-parameter dose response curve, normalized to 0% and 100%
# Procedure: Antiviral activity against RSV was determined using an in vitro cytoprotection assay in Hep2 cells. […] The method used was similar to methods previously described in published literature (Chapman et al., Antimicrob Agents Chemother. 2007, 51(9):3346-53.)
# Hep2 cells were obtained from ATCC (Manassas, Va.) and maintained in MEM media supplemented with 10% fetal bovine serum and penicillin/streptomycin. Cells were passaged twice a week and kept at subconfluent stage. Commercial stock of RSV strain A2 (Advanced Biotechnologies, Columbia, Md.) was titered before compound testing to determine the appropriate dilution of the virus stock that generated desirable cytopathic effect in Hep2 cells.
# For antiviral tests, Hep2 cells were seeded into 96-well plates 24 hours before the assay at a density of 3,000 cells/well. On a separate 96 well plate, compounds to be tested were serially diluted in cell culture media. Eight concentrations in 3-fold serial dilution increments were prepared for each tested compound and 100 uL/well of each dilution was transferred in duplicate onto plates with seeded Hep2 cells. Subsequently, appropriate dilution of virus stock previously determined by titration was prepared in cell culture media and 100 uL/well was added to test plates containing cells and serially diluted compounds. Each plate included three wells of infected untreated cells and three wells of uninfected cells that served as 0% and 100% virus inhibition control, respectively. Following the infection with RSV, testing plates were incubated for 4 days in a tissue culture incubator. After the incubation, RSV-induced cytopathic effect was determined using a Cell TiterGlo reagent (Promega, Madison, Wis.) followed by a luminescence read-out. The percentage inhibition was calculated for each tested concentration relative to the 0% and 100% inhibition controls and the EC50 value for each compound was determined by non-linear regression as a concentration inhibiting the RSV-induced cytopathic effect by 50%. Ribavirin (purchased from Sigma, St. Louis, Mo.) was used as a positive control for antiviral activity.
# Compounds were also tested for antiviral activity against RSV in Hep2 cells using a 384 well format. Compounds were diluted in DMSO using a 10-step serial dilution in 3-fold increments via automation in 4 adjacent replicates each. Eight compounds were tested per dilution plate. 0.4 uL of diluted compounds were then stamped via Biomek into 384-well plates (Nunc 142761 or 164730 w/lid 264616) containing 20 μL of media (Mediatech Inc. MEM supplemented with Glutamine, 10% FBS and Pen/Strep). DMSO and a suitable positive control compound, such as 80 μM GS-329467 or 10 μM 427346 was used for the 100% and 0% cell killing controls, respectively.
# Hep2 cells (1.0×10^5 cells/ml) were prepared as above in batch to at least 40 mls excess of the number of sample plates (8 mls cell mix per plate) and infected with vendor supplied (ABI) RSV strain A2 to arrive at an MOI of 1:1000 (virus:cell #) or 1:3000 (vol virus:cell vol). Immediately after addition of virus, the RSV infected Hep2 cell suspension was added to each stamped 384-well plate at 20 μl per well using a uFlow dispenser, giving a final volume of 40 μL/well, each with 2000 infected cells. The plates were then incubated for 5 days at 37° C. and 5% CO2. Following incubation, the plates were equilibrated to room temperature in a biosafety cabinet hood for 1.5 hrs and 40 μL of Cell-Titer Glo viability reagent (Promega) was added to each well via uFlow. Following a 10-20 minute incubation, the plates were read using an EnVision or Victor Luminescence plate reader (Perkin-Elmer). The data was then uploaded and analyzed on the Bioinformatics portal under the RSV Cell Infectivity and 8-plate EC50-Hep2-384 or 8-plate EC50-Hep2-Envision protocols. […]
row,SMILES,Percent inhibition at 0.5 μM [%]
1,Cc1cc(C2CC2)nc2cc([C@@H]3CCCCN3C(=O)c3ccc(Cl)c(F)c3NS(C)(=O)=O)nn12 [Compound 31],86

# Same assay, conditions: human respiratory syncytial virus, HEp-2, read-out: Percent inhibition at 0.5 μM
row,SMILES,inhibition at 0.5 µM [%]
1,CS(=O)(=O)Nc1ccc(Cl)cc1C(=O)N1CCCC[C@H]1c1cc2nc(N3CCC3)cc(NCCN)n2n1 [Compound 20],100

# Same assay, conditions: human respiratory syncytial virus, HEp-2; 0.5 μM compound; RSV-induced cytopathic effect in Hep2 cells; % inhibition calculated from fitted 4-parameter dose response curve, normalized to 0% and 100%; read-out: Percent inhibition at 0.5 μM
row,SMILES,inhibition at 0.5 µM [%]
1,CC1CN(c2cc(N3CCOCC3)n3nc([C@@H]4CCCCN4C(=O)c4cc(Cl)ccc4NS(C)(=O)=O)cc3n2)C1 [Compound 1],95
2,Cc1cn2nc([C@@H]3CCCCN3C(=O)c3cc(Cl)ccc3NS(C)(=O)=O)cc2nc1N[C@@H](C)CO [Compound 2],97
3,Cc1ccc(C(=O)N2CCCC[C@H]2c2cc3nc(N4CC[C@H](N)C4)c(C)cn3n2)c(C)c1 [Compound 4],100
4,Cc1cn2nc([C@@H]3CCCCN3C(=O)c3ccccc3)cc2nc1N1CC[C@H](N)C1 [Compound 5],100
5,Cc1cccnc1C(=O)N1CCCC[C@H]1c1cc2nc(N3CC[C@H](N)C3)c(C)cn2n1 [Compound 6],100
6,Cc1ccncc1C(=O)N1CCCC[C@H]1c1cc2nc(N3CC[C@H](N)C3)c(C)cn2n1 [Compound 7],100
7,COc1ccc(C)cc1C(=O)N1CCCC[C@H]1c1cc2nc(N3CC[C@H](N)C3)c(C)cn2n1 [Compound 8],100
8,Cc1cn2nc([C@@H]3CCCCN3C(=O)c3ccccc3OC(F)(F)F)cc2nc1N1CC[C@H](N)C1 [Compound 9],100
9,COc1ccc(Cl)cc1C(=O)N1CCCC[C@H]1c1cc2nc(N3CC[C@H](N)C3)c(C)cn2n1 [Compound 10],100
10,Cc1ccc(N2CCCS2(=O)=O)c(C(=O)N2CCCC[C@H]2c2cc3nc(N4CC[C@H](N)C4)c(C)cn3n2)c1 [Compound 11],100
11,Cc1cc(NS(C)(=O)=O)c(C(=O)N2CCCC[C@H]2c2cc3nc(N4CC[C@H](N)C4)c(C)cn3n2)s1 [Compound 12],100
12,CC(=O)Nc1sccc1C(=O)N1CCCC[C@H]1c1cc2nc(N3CC[C@H](N)C3)c(C)cn2n1 [Compound 13],98
13,Cc1cnc(N)c(C(=O)N2CCCC[C@H]2c2cc3nc(N4CC[C@H](N)C4)c(C)cn3n2)c1 [Compound 14],97
14,Cc1cn2nc([C@@H]3CCCCN3C(=O)c3n[nH]c4ccc(F)cc34)cc2nc1N1CC[C@H](N)C1 [Compound 15],92
15,Cc1cn2nc([C@@H]3CCCCN3C(=O)c3cccc(C)c3O)cc2nc1N1CC[C@H](N)C1 [Compound 16],100
16,Cc1cn2nc([C@@H]3CCCCN3C(=O)c3cc4ccccc4[nH]3)cc2nc1N1CC[C@H](N)C1 [Compound 17],96
17,Cc1cn2nc([C@@H]3CCCCN3C(=O)c3ncccc3Cl)cc2nc1N1CC[C@H](N)C1 [Compound 18],100
18,CS(=O)(=O)Nc1ccc(Cl)cc1C(=O)N1CCCC[C@H]1c1cc2nc(N3CCC3)cc(N3CCN[C@@H](CO)C3)n2n1 [Compound 19],100
19,Cc1cn2nc([C@@H]3CCCCN3C(=O)c3cc(Cl)ccc3NS(C)(=O)=O)cc2nc1N1CC[C@H](CN)C1 [Compound 21],100
20,Cc1cn2nc([C@@H]3CCCCN3C(=O)C(NS(C)(=O)=O)c3ccccc3Cl)cc2nc1N1C[C@@H](C#N)[C@@H](O)C1 (stereo partly drawn) [Compound 22],100
21,Cc1cn2nc([C@@H]3CCCCN3C(=O)C(NS(C)(=O)=O)c3ccccc3Br)cc2nc1N1C[C@@H](C#N)[C@@H](O)C1 (stereo partly drawn) [Compound 23],100
22,CNc1c(C)c(C)nc2cc([C@@H]3CCCCN3C(=O)c3cc(F)cc(Cl)c3NS(C)(=O)=O)nn12 [Compound 24],91
23,CNc1c(C)c(C)nc2cc([C@@H]3CCCCN3C(=O)c3cc(Cl)cc(C)c3NS(C)(=O)=O)nn12 [Compound 25],97

row,SMILES,inhibition at 0.5 µM [%]
1,Cc1cc(C2CC2)nc2cc([C@@H]3CCCCN3C(=O)c3cc(Cl)cc(Cl)c3NS(C)(=O)=O)nn12 [Compound 26],97
2,Cc1cn2nc([C@@H]3CCCCN3C(=O)[C@](C)(NS(C)(=O)=O)c3ccccc3)cc2nc1N1CC[C@H](N)C1 [Compound 27],100
3,Cc1cn2nc([C@@H]3CCCCN3C(=O)[C@@](C)(NS(C)(=O)=O)c3ccccc3)cc2nc1N1CC[C@H](N)C1 [Compound 28],100
4,Cc1cc(C2CC2)nc2cc([C@@H]3CCCCN3C(=O)c3cc(Cl)cc(F)c3NS(C)(=O)=O)nn12 [Compound 29],90
5,Cc1cc(C2CC2)nc2cc([C@@H]3CCCCN3C(=O)c3cc(Cl)c(F)cc3NS(C)(=O)=O)nn12 [Compound 30],91
6,Cc1nc2cc([C@@H]3CCCCN3C(=O)c3cc(F)cc(Cl)c3NS(C)(=O)=O)nn2c(C)c1C [Compound 32],85
7,Cc1cn2nc([C@@H]3CCCCN3C(=O)C(NS(C)(=O)=O)c3ccccc3Br)cc2nc1N1CC[C@H](N)C1 (stereo partly drawn) [Compound 33],100
8,Cc1cn2nc([C@@H]3CCCCN3C(=O)C(NS(C)(=O)=O)c3ccccc3Cl)cc2nc1N1CC[C@H](N)C1 (stereo partly drawn) [Compound 34],100
9,Cc1cn2nc([C@@H]3CCCCN3C(=O)c3cc(Cl)ccc3CN=[N+]=[N-])cc2nc1N1CC[C@H](N)C1 [Compound 35],100
10,Cc1cn2nc([C@@H]3CCCCN3C(=O)c3cc(Cl)ccc3CNS(C)(=O)=O)cc2nc1N1CC[C@H](N)C1 [Compound 36],100
11,Cc1cn2nc([C@@H]3CCCCN3C(=O)c3cc(Cl)ccc3CN)cc2nc1N1CC[C@H](N)C1 [Compound 37],100
12,Cc1cn2nc([C@@H]3CCCCN3C(=O)c3cc(Cl)ccc3NS(C)(=O)=O)cc2nc1N1CCC1C (stereo partly drawn) [Compound 40],100
13,C#CC1CCN(c2nc3cc([C@@H]4CCCCN4C(=O)c4cc(Cl)ccc4NS(C)(=O)=O)nn3cc2C)C1 (stereo partly drawn) [Compound 41],100
14,Cc1cn2nc([C@@H]3CCCCN3C(=O)c3cc(Cl)ccc3NS(C)(=O)=O)cc2nc1N1CCC12CNC2 [Compound 42],100
15,CS(=O)(=O)Nc1ccc(Cl)cc1C(=O)N1CCCC[C@H]1c1cc2nc(N3CCC3)cc(N3CCNC(C#N)C3)n2n1 (stereo partly drawn) [Compound 43],100
16,Cc1cc(N2CC[C@H](N)C2)nc2cc([C@@H]3CCCCN3C(=O)c3cc(Cl)ccc3NS(C)(=O)=O)nn12 [Compound 44],100
17,Cc1cccc(NS(C)(=O)=O)c1C(=O)N1CCCC[C@H]1c1cc2nc(C3CC3)cc(C)n2n1 [Compound 45],100
18,Cc1cc(C2CC2)nc2cc([C@@H]3CCCCN3C(=O)c3ccccc3NS(C)(=O)=O)nn12 [Compound 46],97
19,Cc1cc(C2CC2)nc2cc([C@@H]3CCCCN3C(=O)c3c(NS(C)(=O)=O)cccc3C(F)(F)F)nn12 [Compound 47],99
20,O=C(c1ccccc1C(F)(F)F)N1CCCC[C@H]1c1cc2nc(N3CC(O)C3)cc(N3CC(O)C3)n2n1 [Compound 50],100
21,Cc1ccc(NS(C)(=O)=O)c(C(=O)N2CCCC[C@H]2c2cc3nc(C)cc(C)n3n2)c1 [Compound 52],99
22,CN1CCN(c2cc(N3CC(N)C3)nc3cc([C@@H]4CCCCN4C(=O)c4cc(Cl)ccc4NS(C)(=O)=O)nn23)CC1 [Compound 53],99
23,O=C(c1cc(Cl)ccc1NS(=O)(=O)CC(F)(F)F)N1CCCC[C@H]1c1cc2nc(N3CCC3)cc(N3CCNCC3)n2n1 [Compound 55],98
